In experiment [1] the test system is ROS 17/2.8 cells. In words: Intercellular calcium wave propagation in ROS 17/2.8 cells. The class given is cell-based, rat. The conditions noted are these: 10^−8 M, 10 minutes; 48 hours hypoxia 3-6% O2 (2.2 cells before). Here is the method:
(§1) ROS 17/2.8 cells: Cells were cultured in 100 mm dishes at 37° C. with 5% CO2 and medium change every 2-3 days. ROS medium (all reagents obtained from Life Technologies) MEM (Cat.No. 31095) supplemented with 10% heat-inactivated calf serum (Cat.No. 16170), 1% NEAA (Cat.No. 11140), 1% Sodium Pyruvate (Cat.No. 11360), 1% L-Glutamine (Cat.No. 25030) and 0.1% Penicillin/Streptomycin (Cat.No. 15140). For video imaging experiments, cells were plated on coverslips at 2-3×10^5 cells/coverslip and cultured for 2-3 days before use.
The cells cultured on coverslips were loaded with 5 μM fura-2-AM (Molecular Probes, Cat.No. F-1221), for 30 minutes at 37° C., and incubated in fresh medium for 20 minutes. Coverslips were then affixed to a PDMI-2 culture chamber (Medical Systems Corp.), maintained at 37° C. with superfused CO2, on a Zeiss Axiovert microscope. Intercellular calcium waves were induced by mechanical stimulation of a single cell using a borosilicate glass micro pipette affixed to an Eppendorf 5171 micromanipulator. Imaging was performed using a MetaMorph imaging system (Universal Imaging). The excitation light (340 and 380 nm) was provided by a monochromator (T.I.L.L. Photonics GmbH). Images were acquired with an intensified CCD camera (Dage MTI) and digitized with a Matrox MVP image processing board. […]

The test system of experiment [2] is ROS 17/2.8 cells. Description: Lucifer Yellow dye transfer in ROS 17/2.8 cells. Format: cell-based, rat. Conditions: after 48 hours in 3-6% O2 (9 cells before). Here is the method:
as §1
The cells cultured on coverslips were placed in the microscope as described above. Microinjections were performed using the Eppendorf 5171 micromanipulator and the Eppendorf Transjector 5346 system. A micropipette was loaded with a 10 mM Lucifer Yellow (LY) solution (Sigma, Cat.No. L-0259). […] The excitation light for LY was 430 nm, and images were acquired as described above.
Similar experiments were performed with ROS cells. Basic coupling under physiological conditions in ROS cells was 12 cells (n=19). After 48 hours incubation in 3-6% O2, a reduction in dye transfer was seen to 9 cells (n=27).

Experiment [3] has as its system phospho-inositol turnover in neonatal rat cardiomyocytes. Description: Phosphoinositol turnover in rat primary cardiomyocytes. Format: cell-based. The conditions noted are these: 100 nM; control conditions. Here is the method:
Neonatal Wistar rats (1-2 days old) are used. Hank's calcium- and magnesium-free balanced salt solution, buffered with 10 mM HEPES is used for washing during cell separation procedures. The hearts are excised, the ventricles isolated and the tissue cut into small pieces. The myocardial cells are isolated by stepwise enzymatic degradation with collagenase 0.05%, as described by^[35]. After repeated rounds of centrifugation and washing, the precipitated cells are resuspended in culture medium M199 with Earle's salt, 10% NCS, penicillin (75 U/mL), and streptomycin (75 U/mL) and pre-plated in a Petri dish for 90 minutes. The non-adherent cells are collected in the culture medium and plated in multidishes at 2.5*10^5 cells/well. The cultures are kept in a water-saturated CO2-incubator at 37° C. The cardiomyocyte cultures are used for analyses after 6-7 days.
Cardiomyocyte cultures are incubated for 48 hours in culture medium containing […] myo-[2-^3H]inositol to label the inositol phospholipids. On the day of analysis the medium is replaced by a buffer solution containing lithium and incubated at 37° C., as described by Meier et al.^[36]. After at least five minutes this buffer is replaced by the same volume of buffer containing test compound and incubated for exactly 20 minutes. The reaction is stopped by rapid replacement of the buffer by ice cold 4% v/v perchloric acid (PCA) and incubation for at least 20 minutes at 0° C. The PCA-extract is neutralised and the [^3H]inositol phosphates are separated by anion-exchange chromatography using Amprep™ columns containing 100 mg SAX Quaternary amine. The [^3H]inositol mono-phosphates are eluted and radioactivity in the fraction measured by liquid scintillation counting.
Before adding test substances to the cultures, the cells are depleted of glucose and oxygen by incubating them in a N2-atmosphere in glucose-free lithium-buffer for 10 minutes at 37° C. Control cells are incubated likewise only at normal atmospheric conditions and in a buffer containing glucose.

For the substance “Ac-D-Tyr-D-Pro-D-4Hyp-Gly-D-Ala-Gly-NH2 [Compound 2]”, in the experiment with ROS 17/2.8 cells [1], the “average number of cells in the calcium wave” value is listed as 5.4 cells. Further, the “average dye transfer, number of cells” value in the experiment with ROS 17/2.8 cells [2] is listed as 12 cells. Moreover, the “effect on noradrenaline (300 nM) induced increase in phospho-inositol turnover” value in experiment [3] is reported as “no further effect”.
